For one data set, the target named is T1, AHR (Homo sapiens, UniProt P35869).
T1 construct: other cell line with a DRE-luciferase reporter stably transfected; endogenous in cells; host or cells: Human HepG2 liver carcinoma AhR-Lucia reporter cells
T1 sequence (P35869 11-848): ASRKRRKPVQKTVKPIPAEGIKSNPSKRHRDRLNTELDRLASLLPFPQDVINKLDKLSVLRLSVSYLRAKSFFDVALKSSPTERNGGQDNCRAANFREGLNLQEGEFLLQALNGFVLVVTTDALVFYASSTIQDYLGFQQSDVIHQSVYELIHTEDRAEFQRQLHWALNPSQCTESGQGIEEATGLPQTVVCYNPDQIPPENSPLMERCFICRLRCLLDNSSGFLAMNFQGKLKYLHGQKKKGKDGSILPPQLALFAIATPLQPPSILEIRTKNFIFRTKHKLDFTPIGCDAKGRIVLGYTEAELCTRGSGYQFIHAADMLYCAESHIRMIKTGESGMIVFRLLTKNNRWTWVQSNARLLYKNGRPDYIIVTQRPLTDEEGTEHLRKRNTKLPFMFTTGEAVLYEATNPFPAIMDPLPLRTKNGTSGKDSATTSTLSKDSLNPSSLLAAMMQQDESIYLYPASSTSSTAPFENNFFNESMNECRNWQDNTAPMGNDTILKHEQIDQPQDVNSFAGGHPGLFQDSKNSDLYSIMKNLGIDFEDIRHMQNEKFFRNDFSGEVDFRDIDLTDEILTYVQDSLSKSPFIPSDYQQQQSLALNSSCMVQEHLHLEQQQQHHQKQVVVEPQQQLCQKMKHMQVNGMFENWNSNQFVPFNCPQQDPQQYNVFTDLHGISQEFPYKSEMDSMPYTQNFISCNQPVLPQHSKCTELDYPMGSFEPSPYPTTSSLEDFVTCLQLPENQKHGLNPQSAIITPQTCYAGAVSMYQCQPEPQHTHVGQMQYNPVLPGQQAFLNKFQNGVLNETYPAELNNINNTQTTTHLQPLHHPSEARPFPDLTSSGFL
Description: DRE-Luciferase Reporter Assay (HepG2 AhR-Lucia reporter cells). To be noted: AHR activating ligand at its EC50, luciferase read-out, read-out: HEPG2 Luc IC50. It is filed as cell-based. From the text:
Example 27: DRE-Luciferase Reporter Assay
AHR binds to Dioxin Responsive Elements (DRE) upstream of genes that it activates. One measure of AHR activity is activation of a reporter gene, such as luciferase, downstream of one or multiple DRE elements. Luciferase activity will reflect activation and inhibition of AHR in the cells expressing his reporter. 20000 Human HepG2 liver carcinoma—AhR-Lucia reporter cells or Human HT29 colon adenocarcinoma—AhR reporter cells or other cell line with a DRE-luciferase reporter stably transfected were plated in Eagle's Minimal Essential Medium, 10% heat-inactivated FBS, 1×non-essential amino acids Pen-Strep (10,000 U/mL) and Normocin (100 ug/mL) in plates (96-well, 384-well or other plates) and incubated overnight at 37° C. in a CO2 incubator and treated with and without AhR antagonists at a log dilution starting at 100 uM.
After 1 hr that cells were plated an AHR activating ligand, such as TCDD, kynurenine, ITE (2-(1H-indole-3-ylcarbonyl)-4-thiazolecarboxylic methyl ester), VAF347, BNF (beta-naphthoflavone), FICZ (6-formylindolo(3,2-b) carbazole) or other AHR ligands at their specific EC50 concentration, were added to the cells with or without AHR antagonist.
Cells were incubated for 24 or 48 hours or another time point and then, supernatant was analyzed for determination of luciferase activity as a read-out of the AHR activation or inhibition. Luciferase was measured with the commercial kit QUANTI-Luc™ assay solution kit from Invivogen following the manufacturer's instructions.
The level of luciferase with only agonist ligand added was the maximum signal while the luciferase with […] was the minimum signal. IC50 values were determined as the concentration which inhibits half of the luciferase activity. “A” indicates an IC50 value less than 100 nM, “B” indicates an IC50 between 100 and 500 nM, “C” indicates an IC50 above 500 nM.
(Reporter assays use an easily measured gene product as a stand-in for the process of interest.)

Data set [1] is described as follows: Solubility Determination Assay (PBS pH 1.6 and pH 7.4). It is filed as physicochemical. To be noted: PBS buffer, aqueous buffer, kinetic from dmso stock, 2 hours shaking. As to the method:
Example 31: Solubility Determination Assay
The stock solutions of test compounds and control compound progesterone were prepared in DMSO at the concentrations of 10 mM. 15 μL of stock solution (10 mM) of each sample was placed in order into their proper 96-well rack. 485 μL of PBS pH 1.6 and pH 7.4 were added into each vial of the cap-less Solubility Sample plate. The assay was performed in singlet. One stir stick was added to each vial and then the vial was sealed using a molded PTFE/Silicone plug. The solubility sample plates were then transferred to the Eppendorf Thermomixer Comfort plate shaker and shaken at 25° C. at 1100 rpm for 2 hours. After completion of the 2 hours, plugs were removed and the stir sticks were removed using a big magnet. The samples from the Solubility Sample plate were transferred into the filter plate. Using the Vacuum Manifold, all the samples were filtered. An aliquot of 5 μL was taken from the filtrate followed by addition of 495 μL of a mixture of H2O and acetonitrile containing internal standard (1:1). A certain proportion of ultrapure water was used to dilute the diluent according to the peak shape. The dilution factor was changed according to the solubility values and the LC-MS signal response.
From the 10 mM DMSO STD plate, 6 μL was transferred into the remaining empty plate, and then 194 μL of DMSO were added to that plate to have a STD concentration of 300 μM. From the 300 μM DMSO STD plate, 5 μL were transferred into the remaining empty plate, and then 495 μL of a mixture of H2O and acetonitrile containing internal standard (1:1) were added to that plate to have a final STD concentration of 3 μM. A certain proportion of ultrapure water was used to dilute the diluent according to the peak shape. The concentrations of the standard samples were changed according to the LC-MS signal response.
The plate was placed into the well plate autosampler. The samples were evaluated by LC-MS/MS analysis.
All calculations were carried out using Microsoft Excel.
The filtrate was analyzed and quantified against a standard of known concentration using LC coupled with mass spectral peak identification and quantitation. Solubility values of the test compound and control compound were calculated as follows: […]
Any value of the compounds that was not within the specified limits was rejected and the experiment was repeated.
“+++” indicates a solubility value equal to or greater than […] “++” indicates a solubility value between 0.1 and 1 μM and “+” indicates a solubility value less than 0.1 μM.

Setting [2] is: PBS pH 1.6, 25° C., read-out: Aq. Solubility at pH = 1.6.
Where [3] appears, read: PBS pH 7.4, 25° C., read-out: Aq. Solubility at pH = 7.4.

SMILES strings stand for the structures. In brackets after ≈: the same amount, converted by molar mass. Like-named read-outs stand apart in the source and are kept apart here.

The IC50 is the midpoint of a concentration-inhibition curve. As a reminder, the solubility is the dissolved amount per volume that the medium holds.

For the compound `Cc1ccccc1-c1ccc2nc(NC(=O)c3ccccn3)sc2n1` [Product 8, N-(5-(o-tolyl)thiazolo[5,4-b]pyridin-2-yl)picolinamide], the IC50 at AHR was less than 100 nM. For the same compound, the values for the solubility at 2 h in data set [1] (setting [2]) and in data set [1] (setting [3]) were 0.1 to 1 µM (≈ 0.0346 to 0.346 µg/mL) and less than 0.1 µM, respectively.

Turning to `COc1ccccc1-c1ccc2nc(NC(=O)c3ccccn3)sc2n1` [Product 12, N-(5-(2-methoxyphenyl)thiazolo[5,4-b]pyridin-2-yl)picolinamide], the IC50 at AHR was less than 100 nM. For the same compound, the solubility at 2 h in data set [1] (setting [2]) and in data set [1] (setting [3]) was 0.1 to 1 µM (≈ 0.0362 to 0.362 µg/mL) throughout.

Regarding `Cc1ccccc1-c1ccc2nc(NC(=O)c3ccnn3C)sc2n1` [Product 15, 1-Methyl-N-(5-(o-tolyl)thiazolo[5,4-b]pyridin-2-yl)-1H-pyrazole-5-carboxamide], the IC50 at AHR is less than 100 nM. For the same compound, the solubility at 2 h in data set [1] (setting [2]) is 0.1 to 1 µM (≈ 0.0349 to 0.349 µg/mL); in data set [1] (setting [3]), not below 1 µM.

Turning to `CN(C)c1ccccc1-c1ccc2nc(NC(=O)c3ccnn3C)sc2n1` [Product 18, N-(5-(2-(dimethylamino)phenyl)thiazolo[5,4-b]pyridin-2-yl)-1-methyl-1H-pyrazole-5-carboxamide], the IC50 at AHR is less than 100 nM. Besides, the solubility at 2 h in data set [1] (setting [2]) and in data set [1] (setting [3]) was not below 1 µM each time.

With `COc1ccccc1-c1ccc2nc(NC(=O)c3ccnn3C)sc2n1` [Product 25, N-(5-(2-methoxyphenyl)thiazolo[5,4-b]pyridin-2-yl)-1-methyl-1H-pyrazole-5-carboxamide], at AHR, the IC50 is less than 100 nM. The solubility at 2 h in data set [1] (setting [2]) and in data set [1] (setting [3]) was not below 1 µM in each case.

As for `Cc1ccccc1-c1ccc2nc(NC(=O)N3CCOCC3)sc2n1` [Product 39, N-(5-(o-tolyl)thiazolo[5,4-b]pyridin-2-yl)morpholine-4-carboxamide], at AHR, the IC50 was less than 100 nM. Moreover, the solubility at 2 h in data set [1] (setting [2]) and in data set [1] (setting [3]) was not below 1 µM throughout.

`Cn1ncnc1C(=O)Nc1cnc2cc(-c3cc(F)ccc3C(F)F)[nH]c2c1` [Product 47]: the IC50 on AHR was less than 100 nM. The solubility at 2 h in data set [1] (setting [2]) is not below 1 µM; in data set [1] (setting [3]), 0.1 to 1 µM (≈ 0.0386 to 0.386 µg/mL).

The values above are taken from US20230234967A1, “Fused Azole Heterocycles as AHR Antagonists” (Senda Biosciences, Inc., priority 2021, published 2023).
